# Values quoted from earlier work in patent publication US6809181B2, “Human beta-defensin-3 (HBD-3), a highly cationic beta-defensin antimicrobial peptide” (University of Iowa Research Foundation, priority 2000, dated 2004).
# Read-outs that look alike come from different tables or passages of the source.
# Assays:
# Staphylococcus aureus = details: unit assumed, cited from earlier work
# [1] = test system: Haemophilus influenzae (non β-lactamase producer); details: n=137; r58; cited from earlier work
# Bacteroides fragilis = details: n=97, r7, cited from earlier work
# Campylobacter jejuni = details: cited from earlier work; for MIC50 / MIC90: unit assumed
# Borrelia burgdorferi = details: n=10; r12; unit assumed; cited from earlier work
# Haemophilus influenzae = details: cited from earlier work; for MIC50 / MIC90: unit assumed
# Streptococcus agalactiae = details: cited from earlier work
# Ureaplasma urealyticum = details: unit assumed, cited from earlier work
# [2] = test system: Haemophilus parainfluenzae; details: n=13, r68, cited from earlier work
# Bordetella pertussis = details: n=32; r10; unit assumed; cited from earlier work
# [3] = test system: Staphylococcus coagulase f; details: unit assumed; cited from earlier work
# [4] = test system: Staphylococcus aureus (methicillin susceptible); details: unit assumed, cited from earlier work
# Mycoplasma pneumoniae = details: cited from earlier work
# [5] = test system: Staphylococcus aureus (penicillin resistant); details: n=35, r98, cited from earlier work
# [6] = test system: Branhamella (Moraxella) catarrhalis; details: n=20, unit assumed, cited from earlier work
# [7] = test system: Staphylococcus epidermidis; details: n=50; r120; unit assumed; cited from earlier work
smiles,measurement,setting,value
"CC[C@H]1OC(=O)[C@H](C)[C@@H](O[C@H]2C[C@@](C)(OC)[C@@H](O)[C@H](C)O2)[C@H](C)[C@@H](O[C@@H]2O[C@H](C)C[C@H](N(C)C)[C@H]2O)[C@](C)(O)C[C@@H](C)C(=O)[C@H](C)[C@@H](O)[C@]1(C)O [ERYTHROMYCIN, erythromycin]",MIC90,"Staphylococcus aureus; n=44, r92",0.5 µg/mL
same,MIC50,"Staphylococcus aureus; n=100, r93",0.5 µg/mL
same,MIC90,"Staphylococcus aureus; n=100, r93",4 µg/mL
same,Range,[1],0.06-8
same,Range,Bacteroides fragilis,0.25-16
same,MIC50,Bacteroides fragilis; unit assumed,1 µg/mL
same,MIC90,Bacteroides fragilis; unit assumed,8 µg/mL
same,MIC50,"Campylobacter jejuni; n=16, r42",0.25 µg/mL
same,MIC90,"Campylobacter jejuni; n=16, r42",2 µg/mL
same,Range,"Campylobacter jejuni; n=25, r41",0.5-8
same,MIC50,"Campylobacter jejuni; n=25, r41",1 µg/mL
same,MIC90,"Campylobacter jejuni; n=25, r41",4 µg/mL
same,MIC50,Borrelia burgdorferi,0.03 µg/mL
same,MIC90,Borrelia burgdorferi,0.06 µg/mL
same,Range,"Haemophilus influenzae; n=97, r55",0.25-16
same,MIC50,"Haemophilus influenzae; n=97, r55",1 µg/mL
same,MIC90,"Haemophilus influenzae; n=97, r55",4 µg/mL
same,Range,"Haemophilus influenzae; n=145, r54",0.5-8
same,MIC50,"Haemophilus influenzae; n=145, r54",2 µg/mL
same,MIC90,"Haemophilus influenzae; n=145, r54",2 µg/mL
same,Range,"Streptococcus agalactiae; n=20, r123",0.03-0.25
same,MIC50,"Streptococcus agalactiae; n=20, r123, unit assumed",0.03 µg/mL
same,Range,"Streptococcus agalactiae; n=34, r124",0.015-0.06
same,MIC50,"Streptococcus agalactiae; n=34, r124, unit assumed",0.03 µg/mL
same,MIC90,"Streptococcus agalactiae; n=34, r124, unit assumed",0.03 µg/mL
same,MIC50,"Ureaplasma urealyticum; n=19, r138",16 µg/mL
same,MIC90,"Ureaplasma urealyticum; n=19, r138",32 µg/mL
same,MIC50,"Ureaplasma urealyticum; n=28, r137",2 µg/mL
same,Range,[2],0.5-8
same,MIC50,[2]; unit assumed,2 µg/mL
same,MIC90,[2]; unit assumed,4 µg/mL
same,MIC50,Bordetella pertussis,0.25 µg/mL
same,MIC50,[3],0.25 µg/mL
same,MIC50,"[4]; n=20, r104",0.5 µg/mL
same,MIC90,"[4]; n=20, r104",0.5 µg/mL
same,MIC50,"[4]; n=28, r100",0.25 µg/mL
same,MIC90,"[4]; n=28, r100",0.5 µg/mL
same,MIC50,"[4]; n=97, r102",0.25 µg/mL
same,Range,"Mycoplasma pneumoniae; n=10, r79",0.06-8
same,MIC90,"Mycoplasma pneumoniae; n=10, r79, unit assumed",0.06 µg/mL
same,Range,"Mycoplasma pneumoniae; n=14, r80",0.004-0.03
same,MIC50,"Mycoplasma pneumoniae; n=14, r80, unit assumed",0.004 µg/mL
same,MIC90,"Mycoplasma pneumoniae; n=14, r80, unit assumed",0.004 µg/mL
same,Range,[5],0.25-32
same,MIC50,[5]; unit assumed,0.25 µg/mL
same,MIC90,[5]; unit assumed,32 µg/mL
same,MIC50,[6]; r13,0.25 µg/mL
same,MIC50,[6]; r15,0.25 µg/mL
same,MIC90,[6]; r15,1 µg/mL
same,MIC50,[7],64 µg/mL
